Assay results published in ChEMBL document CHEMBL1201862, “PubChem BioAssay data set” (2004).
Activity calls are given as the source filed them.

Tests used:
[1] = target: G-protein coupled receptor 35 (Homo sapiens, UniProt Q9HC97); assay: GPR35 antagonists blocking zaprinast-driven arrestin recruitment, primary screen, imaging, U2OS, beta-arrestin-GFP, zaprinast agonist (AID 2058); format: functional;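 further: antagonist potency meaning inhibition of agonist-induced arrestin redistribution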
[2] = cytotoxicity in HEK-293T cells, dose response, cytotoxicity control for TCR NF-kB inhibitor project, luminescence, T-cell screen hits (AID 489026); format: functional, cell-based;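 further: cells exposed to compound about 14 hours before the viability readout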
[3] = target: T1, Microphthalmia-associated transcription factor (Homo sapiens, UniProt O75030); assay: TRPM1 promoter luciferase signal decrease, dose response, MITF inhibitor project, cell-based, SK-MEL-5, cherry-picked, set 3 (AID 493073); format: functional
T1 sequence (O75030 whole entry): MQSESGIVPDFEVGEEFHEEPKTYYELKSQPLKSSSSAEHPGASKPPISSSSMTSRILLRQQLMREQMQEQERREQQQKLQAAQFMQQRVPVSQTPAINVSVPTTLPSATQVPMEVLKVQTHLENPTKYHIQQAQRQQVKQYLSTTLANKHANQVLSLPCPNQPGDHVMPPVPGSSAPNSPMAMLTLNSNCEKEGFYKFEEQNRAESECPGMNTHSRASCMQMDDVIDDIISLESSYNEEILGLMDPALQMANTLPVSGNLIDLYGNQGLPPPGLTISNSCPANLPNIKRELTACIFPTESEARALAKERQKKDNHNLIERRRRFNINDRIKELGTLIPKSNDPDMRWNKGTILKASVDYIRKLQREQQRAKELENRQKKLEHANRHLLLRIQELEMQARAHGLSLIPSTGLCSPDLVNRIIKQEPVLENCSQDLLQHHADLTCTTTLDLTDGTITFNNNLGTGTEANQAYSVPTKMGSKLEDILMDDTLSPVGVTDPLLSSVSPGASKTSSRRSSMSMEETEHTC

[4] = test system: A-375; assay: A375 melanoma cell viability reduction, dose response, counter-screen for MITF modulator project, cherry-pick samples, set 2 (AID 540335); format: functional, cell-based; settings: Homo sapiens
[5] = target: COUP transcription factor 2 (Homo sapiens, UniProt P24468); assay: Luminescence-based cell-based high throughput dose response assay to identify inhibitors of COUP-TFII (NR2F2).; format: functional;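 further: HEK293 cells transiently cotransfected with COUP-TFII expression vector and reporter; luciferase reporter luminescence driven by COUP-TFII from the pX2-168 reporter plasmid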
[6] = test system: Streptococcus sp. 'group A'; assay: growth inhibition of control SK(-) GAS strain, dose response, counter-screen for streptokinase expression inhibitor project, luminescence, kanamycin, BacTiterGlo, confirmation (AID 1900); format: functional, organism-based
[7] = target: T2, Streptokinase A (Streptococcus pyogenes serotype M1, UniProt P10520); assay: S. pyogenes streptokinase expression inhibitors, potency, dose response, plasminogen activation absorbance, OD405 (AID 1914); format: functional, Streptococcus pyogenes M1 GAS;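 further: secreted streptokinase activity via plasminogen activation per viability signal from cell pellet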
T2 sequence (P10520 whole entry): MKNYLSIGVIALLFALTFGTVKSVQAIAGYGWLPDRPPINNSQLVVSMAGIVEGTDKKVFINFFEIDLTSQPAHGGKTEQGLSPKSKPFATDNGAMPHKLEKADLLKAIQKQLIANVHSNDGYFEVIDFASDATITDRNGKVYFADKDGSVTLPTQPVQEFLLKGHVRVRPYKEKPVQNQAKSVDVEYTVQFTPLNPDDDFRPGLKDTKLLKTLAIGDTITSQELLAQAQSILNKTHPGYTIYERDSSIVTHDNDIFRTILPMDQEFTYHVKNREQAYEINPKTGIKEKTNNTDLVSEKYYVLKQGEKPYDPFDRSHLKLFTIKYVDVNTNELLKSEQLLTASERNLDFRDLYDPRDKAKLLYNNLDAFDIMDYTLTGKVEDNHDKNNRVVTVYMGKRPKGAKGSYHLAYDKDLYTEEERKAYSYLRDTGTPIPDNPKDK

[8] = test system: Streptococcus; assay: Group A Streptococcus viability loss, dose response, counter-screen for streptokinase expression inhibitor project, luminescence, BacTiterGlo (AID 1915); format: functional, organism-based;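 further: potency for reduction of bacterial viability or growth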
[9] = target: Disintegrin and metalloproteinase domain-containing protein 17 (Homo sapiens, UniProt P78536); assay: exosite inhibitors of ADAM17, dose response, biochemical (AID 743260)
[10] = ADAM10 protease inhibitors, dose response, selectivity assay for ADAM17 exosite inhibitor project, biochemical, FRET peptide substrate, recombinant human ADAM10 (AID 743259);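 further: ADAM10 enzyme cleaving a FRET peptide substrate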
[11] = THP-1 cell cytotoxicity, dose response, cytotoxicity control for Vif-APOBEC3G degradation inhibitor project, THP-1 cells (AID 1117359); format: functional; settings: Human immunodeficiency virus 1, THP-1
[12] = inhibitors of firefly luciferase expression or activity, dose response, H4 neuroglioma cells, luminescence (AID 1990); format: functional, cell-based
[13] = Luminescence Cell-Based Dose Response HTS to Identify Inhibitors of 5'UTR Stem-Loop Driven Prion Protein mRNA Translation in H4 Neuroglioblastoma Cells. [Related pubchem assays: 1827 (Project Summary), 1813 (Primary HTS)]; format: functional
[14] = inhibitors of SNCA 5'UTR-driven reporter translation, confirmation, H4 neuroglioma cells, luminescence (AID 1988); format: functional, cell-based
[15] = target: Cytochrome P450 2D6 (Homo sapiens, UniProt P10635);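 further: CYP2D6 member of a cytochrome P450 panel assay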
[16] = target: Beta-lactamase (Salmonella choleraesuis (strain SC-B67), UniProt Q5J463); assay: Epi-absorbance-based counterscreen for selective VIM-2 inhibitors: dose response biochemical high throughput screening assay to identify inhibitors of TEM-1 serine-beta-lactamase.
[17] = target: T3, Beta-lactamase (Pseudomonas aeruginosa, UniProt Q79MP6); assay: IMP-1 metallo-beta-lactamase inhibitors, dose response, selectivity assay for VIM-2 inhibitor project, biochemical, epi-absorbance (AID 1920)
[18] = target: T3, Beta-lactamase; assay: […] counterscreen for selective VIM-2 inhibitors: dose response biochemical high throughput screening assay to identify inhibitors of IMP-1 metallo-beta-lactamase.
[19] = target: NAD-dependent protein deacylase sirtuin-5, mitochondrial (Homo sapiens, UniProt Q9NXA8); assay: SIRT5 desuccinylase inhibitors, dose response, biochemical, fluorescence imaging, cherry-pick, set 5 (AID 720591);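 further: desuccinylation of succinyl peptide AMC substrate read as fluorescence after trypsin release; potency of inhibitors that lower fluorescence and may act on trypsin instead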
[20] = target: Galanin receptor type 3 (Homo sapiens, UniProt O60755); assay: Fluorescence-based cell-based primary high throughput dose response assay to identify antagonists of the Galanin Receptor 3 (GalR3).; format: functional
[21] = cells; format: functional, cell-based; settings: HEK-CNG
[22] = target: Protein-tyrosine kinase 2-beta (Homo sapiens, UniProt Q14289);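 further: potency of inhibitors of PYK2 kinase phosphorylation of poly-GT substrate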
[23] = human group III sPLA2 inhibitors, dose response, biochemical, QFRET, IC50 (AID 743457);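 further: green fluorescence rise as the enzyme cleaves BODIPY PC-A2 in liposomes; potency for inhibition of the enzyme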
[24] = cells; format: functional, cell-based
[25] = target: T4, Trace amine-associated receptor 1 (Homo sapiens, UniProt Q96RJ0); assay: Fluorescence-based cell-based high throughput dose response assay to identify agonists of the human trace amine associated receptor 1 (TAAR1).; format: functional
T4 sequence (Q96RJ0 whole entry): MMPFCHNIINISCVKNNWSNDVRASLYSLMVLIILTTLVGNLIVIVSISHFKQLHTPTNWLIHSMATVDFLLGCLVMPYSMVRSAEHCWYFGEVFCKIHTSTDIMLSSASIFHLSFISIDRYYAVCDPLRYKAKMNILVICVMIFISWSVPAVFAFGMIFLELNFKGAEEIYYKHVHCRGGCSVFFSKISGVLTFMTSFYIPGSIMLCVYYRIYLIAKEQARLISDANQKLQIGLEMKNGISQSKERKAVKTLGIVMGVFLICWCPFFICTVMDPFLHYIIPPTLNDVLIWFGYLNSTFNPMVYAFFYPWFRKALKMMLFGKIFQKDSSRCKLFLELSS

[26] = target: T4, Trace amine-associated receptor 1; assay: Counterscreen for agonists of the human trace amine associated receptor 1 (hTAAR1): Fluorescence-based cell-based high throughput dose response assay to identify hTAAR1 agonist that also desensitize TAAR1 receptor response.; format: functional
[27] = cells; format: functional, cell-based; remark: listed apart in the source

T3 sequence (Q79MP6 whole entry): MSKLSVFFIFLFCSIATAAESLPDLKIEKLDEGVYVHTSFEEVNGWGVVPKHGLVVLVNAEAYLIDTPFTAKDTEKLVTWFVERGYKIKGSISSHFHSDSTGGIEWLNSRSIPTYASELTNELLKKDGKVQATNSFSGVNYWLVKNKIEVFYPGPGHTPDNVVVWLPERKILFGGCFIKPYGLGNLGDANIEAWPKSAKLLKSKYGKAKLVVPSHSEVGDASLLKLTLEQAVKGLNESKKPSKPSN
Beta-lactamase (Salmonella choleraesuis (strain SC-B67), UniProt Q5J463), sequence (Q5J463 whole entry): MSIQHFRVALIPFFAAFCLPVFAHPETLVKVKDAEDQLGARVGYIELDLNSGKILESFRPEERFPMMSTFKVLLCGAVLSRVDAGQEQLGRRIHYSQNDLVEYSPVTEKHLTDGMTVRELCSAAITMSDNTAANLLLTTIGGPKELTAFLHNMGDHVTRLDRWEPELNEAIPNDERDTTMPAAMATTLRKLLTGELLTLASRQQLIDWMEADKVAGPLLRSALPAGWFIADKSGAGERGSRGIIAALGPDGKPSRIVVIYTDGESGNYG
Disintegrin and metalloproteinase domain-containing protein 17, sequence (P78536 whole entry, the tested form may be a part): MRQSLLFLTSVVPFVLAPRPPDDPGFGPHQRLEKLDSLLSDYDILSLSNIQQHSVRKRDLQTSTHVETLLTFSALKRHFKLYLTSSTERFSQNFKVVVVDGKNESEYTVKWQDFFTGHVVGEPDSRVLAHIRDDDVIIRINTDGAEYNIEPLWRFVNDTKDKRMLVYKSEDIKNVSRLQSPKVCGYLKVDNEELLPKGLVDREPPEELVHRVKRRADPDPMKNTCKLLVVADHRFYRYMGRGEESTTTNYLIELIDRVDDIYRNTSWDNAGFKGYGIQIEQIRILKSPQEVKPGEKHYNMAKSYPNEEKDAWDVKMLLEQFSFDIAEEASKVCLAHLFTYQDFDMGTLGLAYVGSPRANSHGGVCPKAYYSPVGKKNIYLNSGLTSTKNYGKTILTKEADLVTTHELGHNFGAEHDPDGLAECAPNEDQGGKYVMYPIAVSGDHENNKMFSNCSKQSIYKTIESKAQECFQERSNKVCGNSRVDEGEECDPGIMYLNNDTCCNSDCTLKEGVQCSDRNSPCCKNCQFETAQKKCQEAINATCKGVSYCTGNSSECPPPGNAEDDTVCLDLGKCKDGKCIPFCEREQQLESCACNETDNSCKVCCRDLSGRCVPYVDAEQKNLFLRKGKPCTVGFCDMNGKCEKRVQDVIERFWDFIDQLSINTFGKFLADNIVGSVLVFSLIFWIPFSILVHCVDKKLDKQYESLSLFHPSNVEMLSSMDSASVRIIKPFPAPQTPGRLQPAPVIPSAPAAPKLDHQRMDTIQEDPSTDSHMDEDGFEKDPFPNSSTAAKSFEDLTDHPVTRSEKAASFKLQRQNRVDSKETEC
Galanin receptor type 3, sequence (O60755 whole entry): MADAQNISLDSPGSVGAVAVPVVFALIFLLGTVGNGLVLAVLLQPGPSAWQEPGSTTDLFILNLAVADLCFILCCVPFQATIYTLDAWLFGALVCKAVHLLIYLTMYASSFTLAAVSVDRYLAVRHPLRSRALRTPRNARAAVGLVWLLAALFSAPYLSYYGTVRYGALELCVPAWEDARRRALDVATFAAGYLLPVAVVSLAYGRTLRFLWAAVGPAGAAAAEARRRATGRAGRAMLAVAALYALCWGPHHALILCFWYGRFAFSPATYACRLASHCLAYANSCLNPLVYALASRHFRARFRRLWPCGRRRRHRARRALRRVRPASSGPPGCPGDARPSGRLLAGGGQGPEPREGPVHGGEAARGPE
G-protein coupled receptor 35, sequence (Q9HC97 whole entry): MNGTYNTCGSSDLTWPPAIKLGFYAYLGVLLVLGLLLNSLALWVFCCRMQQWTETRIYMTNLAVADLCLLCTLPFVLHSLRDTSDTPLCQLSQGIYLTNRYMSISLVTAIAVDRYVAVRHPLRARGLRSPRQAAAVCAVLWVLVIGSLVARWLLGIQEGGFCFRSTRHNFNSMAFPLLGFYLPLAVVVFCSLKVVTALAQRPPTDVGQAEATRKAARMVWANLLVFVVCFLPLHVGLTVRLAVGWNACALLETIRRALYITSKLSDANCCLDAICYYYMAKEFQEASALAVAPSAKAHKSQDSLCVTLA
COUP transcription factor 2, sequence (P24468 whole entry): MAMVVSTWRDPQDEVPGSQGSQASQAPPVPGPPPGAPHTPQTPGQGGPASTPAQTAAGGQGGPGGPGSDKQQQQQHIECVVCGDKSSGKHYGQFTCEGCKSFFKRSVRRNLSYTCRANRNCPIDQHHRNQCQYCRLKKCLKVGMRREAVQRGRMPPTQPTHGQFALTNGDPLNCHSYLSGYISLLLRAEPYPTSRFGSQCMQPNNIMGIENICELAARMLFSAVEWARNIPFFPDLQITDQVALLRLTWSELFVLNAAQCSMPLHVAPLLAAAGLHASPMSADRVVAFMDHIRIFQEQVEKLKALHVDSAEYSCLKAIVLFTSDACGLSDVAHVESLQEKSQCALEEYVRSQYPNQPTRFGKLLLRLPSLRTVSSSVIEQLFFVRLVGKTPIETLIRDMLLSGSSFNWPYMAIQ
Protein-tyrosine kinase 2-beta, sequence (Q14289 whole entry): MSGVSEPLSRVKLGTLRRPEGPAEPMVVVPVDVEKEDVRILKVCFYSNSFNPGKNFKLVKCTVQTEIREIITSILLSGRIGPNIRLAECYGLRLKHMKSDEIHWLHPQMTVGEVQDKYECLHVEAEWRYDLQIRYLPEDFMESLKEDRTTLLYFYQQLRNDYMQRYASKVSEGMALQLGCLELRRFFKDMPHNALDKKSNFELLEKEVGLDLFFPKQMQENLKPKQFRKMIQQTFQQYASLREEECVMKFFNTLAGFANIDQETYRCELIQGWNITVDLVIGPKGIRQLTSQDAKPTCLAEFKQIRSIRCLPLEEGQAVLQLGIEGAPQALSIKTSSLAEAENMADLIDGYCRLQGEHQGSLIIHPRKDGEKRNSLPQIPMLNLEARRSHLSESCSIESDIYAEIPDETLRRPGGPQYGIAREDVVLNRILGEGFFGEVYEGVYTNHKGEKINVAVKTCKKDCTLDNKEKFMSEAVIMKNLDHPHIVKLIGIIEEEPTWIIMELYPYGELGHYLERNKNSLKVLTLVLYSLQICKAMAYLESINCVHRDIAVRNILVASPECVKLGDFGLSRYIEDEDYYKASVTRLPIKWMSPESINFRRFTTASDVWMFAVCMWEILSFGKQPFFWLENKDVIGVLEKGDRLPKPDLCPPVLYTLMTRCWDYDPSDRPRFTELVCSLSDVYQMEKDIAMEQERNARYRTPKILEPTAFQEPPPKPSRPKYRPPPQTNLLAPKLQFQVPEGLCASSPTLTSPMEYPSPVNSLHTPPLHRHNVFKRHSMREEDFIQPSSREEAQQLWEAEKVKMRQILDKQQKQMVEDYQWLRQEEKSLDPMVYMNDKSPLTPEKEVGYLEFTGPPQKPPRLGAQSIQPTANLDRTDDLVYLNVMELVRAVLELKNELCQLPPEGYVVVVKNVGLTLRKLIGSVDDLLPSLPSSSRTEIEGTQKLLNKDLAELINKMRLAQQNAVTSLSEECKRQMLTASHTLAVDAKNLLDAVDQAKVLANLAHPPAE
Cytochrome P450 2D6, sequence (P10635 whole entry): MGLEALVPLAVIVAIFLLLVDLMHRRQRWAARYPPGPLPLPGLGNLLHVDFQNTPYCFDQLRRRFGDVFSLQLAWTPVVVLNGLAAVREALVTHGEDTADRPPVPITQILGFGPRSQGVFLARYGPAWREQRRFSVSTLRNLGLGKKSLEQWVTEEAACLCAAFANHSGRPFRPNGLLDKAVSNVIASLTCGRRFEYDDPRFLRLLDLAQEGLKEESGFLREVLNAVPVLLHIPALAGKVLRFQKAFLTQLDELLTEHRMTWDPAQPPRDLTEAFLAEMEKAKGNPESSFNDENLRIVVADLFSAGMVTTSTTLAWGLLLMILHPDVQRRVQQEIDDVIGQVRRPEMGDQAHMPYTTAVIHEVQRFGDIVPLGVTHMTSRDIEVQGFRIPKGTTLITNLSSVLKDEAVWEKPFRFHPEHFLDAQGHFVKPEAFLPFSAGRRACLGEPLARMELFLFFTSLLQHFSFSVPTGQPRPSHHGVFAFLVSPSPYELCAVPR
NAD-dependent protein deacylase sirtuin-5, mitochondrial, sequence (Q9NXA8 whole entry): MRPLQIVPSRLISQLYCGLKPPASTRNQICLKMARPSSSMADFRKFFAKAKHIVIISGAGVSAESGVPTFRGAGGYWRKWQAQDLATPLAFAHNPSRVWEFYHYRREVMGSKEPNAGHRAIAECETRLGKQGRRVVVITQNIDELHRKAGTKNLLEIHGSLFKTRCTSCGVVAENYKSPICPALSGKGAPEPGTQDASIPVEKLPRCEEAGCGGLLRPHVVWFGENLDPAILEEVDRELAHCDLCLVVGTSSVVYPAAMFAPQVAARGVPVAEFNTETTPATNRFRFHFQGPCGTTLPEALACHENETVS

CC1=CC(=Cc2sc3ccccc3[n+]2C)C=C(C)N1CC1CCCO1 (configuration not stated)
IC50 [1]: 1.44 µM (active) | IC50 [2]: > 80 µM (inactive) | AC50 [3]: 1.82 µM (active) | AC50 [4]: 24.4 µM (active) | IC50 [5]: 4.97 µM (active)

COc1ccc(C2CC(O)(c3ccccc3)Oc3c(C)ccc(C)c32)cc1 (configuration not stated)
EC50 [6]: > 150 µM (not active) | EC50 [7]: > 150 µM (not active) | EC50 [8]: > 150 µM (not active) | IC50 [9]: > 69.5 µM (inactive) | IC50 [10]: 12.7 µM (inactive) | CC50 [11]: 28.5 µM (active)

CC(Oc1ccc(Cl)cc1)c1ccnn1S(=O)(=O)c1ccccc1 (configuration not stated)
EC50 [12]: 17.4 µM (active) | EC50 [13]: > 120 µM (not active) | EC50 [14]: > 120 µM (not active) | IC50 [9]: > 69.5 µM (inactive) | IC50 [10]: 66.4 µM (inactive) | AC50 [15]: 14.1 µM (inconclusive)

COc1ccccc1-c1n[nH]c(=S)n1Cc1ccco1
IC50 [16]: > 59.6 µM (inactive) | IC50 [17]: > 59.6 µM (inactive) | IC50 [18]: > 59.6 µM (inactive)

C=CCSc1nnc(NC(=O)c2cn(CC)c3nc(C)ccc3c2=O)s1
AC50 [19]: > 30 µM (inactive)

COc1cccc2[nH]c3c(N4CCC(C)CC4)ncnc3c12
IC50 [20]: 0.379 µM (active) | EC50 [21]: > 29.9 µM (inactive)

O=P(O)(O)c1ccccc1OCCCCCOc1ccccc1P(=O)(O)O
IC50 [16]: > 59.6 µM (inactive) | IC50 [17]: > 59.6 µM (inactive) | IC50 [18]: > 59.6 µM (inactive) | IC50 [22]: 2.23 µM (active)

COc1ccccc1N=C(S)NNC(=O)c1nn(C)cc1Cl
IC50 [23]: > 122 µM (inactive)

O=c1cc(Nc2ccc3c(c2)OCO3)[nH]c(=O)n1-c1ccc(Br)cc1
IC50 [24]: > 29.9 µM (inactive) | EC50 [25]: 5.11 µM (active) | IC50 [26]: 21.9 µM (inactive) | EC50 [27]: > 29.9 µM (inactive)
